# Values joined by “and” are separate entries in the source; they are usually repeats but may differ in a detail not shown here. Equal entries are not always repeated.
# Tests used:
# Type in all cases: cell-based
# [1] = system: HEK-293-αVβ3 cells; assay: AP5 Binding Assay; details: 10 mM EDTA; average±SD of 17 experiments
# Description: (§1) HEK-293 Cells Expressing αVβ3. HEK-293 cells were transfected using lipofectamine 2000 (Invitrogen #11668030) with the cDNA for αV using the pEF1/V5-His A vector and the cDNA for β3 using the vector pcDNA3.1. Cells expressing αVβ3 were identified by their reaction with murine monoclonal antibodies (mAbs) LM609 and 7E3, and stable cell lines were established by repetitive sorting using LM609. […] HEK-293-αVβ3 cells for assays are counted in an automated cell counter (ADVIA 120) and adjusted to values appropriate for each assay.
# (§2) AP5 Binding Assay. HEK-293-αVβ3 cells are harvested using 0.05% trypsin 0.5 mM EDTA, washed with HBMT once, and resuspended in HBMT containing 1 mM Mg2+ and 2 mM Ca2+. The cells are counted and adjusted to 0.5×10^6 cells per sample. The compound to be tested and fluorescently labeled mAb AP5 (either Alexa 488 or Alexa 674; 10 μg/mL) are added and incubated for 30 minutes at 37° C. The cells are then washed and analyzed by flow cytometry (BD FACSCalibur) at the appropriate wavelength for detecting the AP5 fluorophore. In each assay, cilengitide (1 μM) and 10 mM EDTA are included as positive controls and untreated cells are used as the negative control. The concentration of the test compound required to induce the expression of 50% of the AP5 expression induced by cilengitide is calculated and defined as the EC50. The EC50 for cilengitide was determined based on the expression induced by EDTA.
# [2] = molecular target: T1, HEK-293-αVβ3 cells (Homo sapiens, UniProt P05106+P06756); assay: AP5 Binding Assay; details: for activation at 10 µM: relative to AP5 expression induced by cilengitide, read-out: AP5 expression induced at the highest concentration; for EC50: concentration inducing 50% of the AP5 expression induced by 1 μM cilengitide
# T1 sequence (P05106 whole entry): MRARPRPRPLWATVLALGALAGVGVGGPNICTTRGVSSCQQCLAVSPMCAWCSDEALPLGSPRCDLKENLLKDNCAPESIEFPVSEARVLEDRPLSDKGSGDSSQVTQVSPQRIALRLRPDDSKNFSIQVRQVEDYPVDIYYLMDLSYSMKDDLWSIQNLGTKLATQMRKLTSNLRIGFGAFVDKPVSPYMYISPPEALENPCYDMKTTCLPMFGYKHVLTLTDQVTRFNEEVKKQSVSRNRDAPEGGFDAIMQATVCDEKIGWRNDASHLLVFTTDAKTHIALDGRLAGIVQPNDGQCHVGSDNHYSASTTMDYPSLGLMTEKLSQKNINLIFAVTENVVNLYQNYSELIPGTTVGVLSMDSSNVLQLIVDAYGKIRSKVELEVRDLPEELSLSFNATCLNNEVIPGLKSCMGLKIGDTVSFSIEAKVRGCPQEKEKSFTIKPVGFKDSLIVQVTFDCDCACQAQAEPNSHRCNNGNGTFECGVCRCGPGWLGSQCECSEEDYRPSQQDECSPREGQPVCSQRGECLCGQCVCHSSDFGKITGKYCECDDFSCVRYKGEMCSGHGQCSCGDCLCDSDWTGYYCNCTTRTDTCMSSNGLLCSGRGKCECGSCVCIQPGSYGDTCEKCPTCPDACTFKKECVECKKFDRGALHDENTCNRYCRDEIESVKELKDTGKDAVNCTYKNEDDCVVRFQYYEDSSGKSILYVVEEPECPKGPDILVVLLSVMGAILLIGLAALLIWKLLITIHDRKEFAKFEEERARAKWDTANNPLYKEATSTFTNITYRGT
# T1 sequence (P06756 whole entry): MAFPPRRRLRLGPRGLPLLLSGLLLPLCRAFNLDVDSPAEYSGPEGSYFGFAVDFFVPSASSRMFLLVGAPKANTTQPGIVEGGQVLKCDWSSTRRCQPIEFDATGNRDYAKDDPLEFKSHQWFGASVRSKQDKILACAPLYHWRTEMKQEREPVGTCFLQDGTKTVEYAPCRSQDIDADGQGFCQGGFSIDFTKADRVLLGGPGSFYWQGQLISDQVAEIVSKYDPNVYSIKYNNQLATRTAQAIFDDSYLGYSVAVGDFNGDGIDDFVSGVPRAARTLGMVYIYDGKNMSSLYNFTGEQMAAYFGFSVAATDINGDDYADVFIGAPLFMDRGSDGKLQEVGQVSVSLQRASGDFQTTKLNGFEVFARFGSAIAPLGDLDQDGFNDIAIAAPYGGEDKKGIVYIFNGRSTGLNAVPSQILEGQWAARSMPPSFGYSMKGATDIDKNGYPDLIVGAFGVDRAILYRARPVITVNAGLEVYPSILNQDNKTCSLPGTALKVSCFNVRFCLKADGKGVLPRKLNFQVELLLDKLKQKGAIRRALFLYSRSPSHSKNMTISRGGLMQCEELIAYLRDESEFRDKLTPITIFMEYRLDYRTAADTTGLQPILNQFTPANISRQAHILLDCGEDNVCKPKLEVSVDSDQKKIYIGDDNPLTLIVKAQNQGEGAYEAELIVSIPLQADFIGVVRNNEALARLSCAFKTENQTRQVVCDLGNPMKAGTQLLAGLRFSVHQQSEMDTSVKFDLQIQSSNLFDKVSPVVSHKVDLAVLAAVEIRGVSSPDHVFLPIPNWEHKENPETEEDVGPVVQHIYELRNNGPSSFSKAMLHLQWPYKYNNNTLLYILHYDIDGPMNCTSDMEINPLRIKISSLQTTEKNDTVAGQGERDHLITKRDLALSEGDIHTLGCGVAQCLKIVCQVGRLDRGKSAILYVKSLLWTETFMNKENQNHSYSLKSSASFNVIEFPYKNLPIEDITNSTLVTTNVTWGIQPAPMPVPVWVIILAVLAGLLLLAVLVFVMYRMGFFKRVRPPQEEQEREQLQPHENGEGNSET
# Description: as §1, §2
# [3] = molecular target: T1, HEK-293-αVβ3 cells; assay: αVβ3 Cell Adhesion to Fibrinogen Assay; design: IC50; other: dose reducing by 50% the adhesion of HEK-293-αVβ3 cells to fibrinogen; untreated cells 100% adhesion, 10 mM EDTA 0%; details: dose reducing by 50% the adhesion of HEK-293-αVβ3 cells to fibrinogen; separate determinations listed
# Description: as §1
# αVβ3 Cell Adhesion to Fibrinogen Assay. Polystyrene 96-well microtiter plates (Costar, 3590) are precoated with 3.5 μg/mL of purified fibrinogen (Enzyme Research Laboratories) in 0.15 M NaCl, 0.01 M Tris/HCL, pH 7.4 for 1 hour at 37° C. The wells are then washed and incubated with HEPES-Buffered Modified Tyrode's solution (HBMT; 0.128 M NaCl, 10 mM HEPES, 12 mM NaHCO3, 0.4 mM NaH2PO4, 2.7 mM KCl, 0.35% bovine serum albumin (Fisher), 0.1% glucose, pH 7.4) for 1 hour at room temperature or overnight at 4° C. Wells are washed with HBMT containing 1 mM Mg2+ and 2 mM Ca2+ and then 50 μL of HEK-293-αVβ3 cells that have been pretreated with the compound to be tested for 20 minutes at room temperature are added to each well at a concentration of 3,000 cells/μL. After 30-32 minutes the wells are washed with HBMT containing Ca2+ and Mg2+ three times and then the adherent cells are lysed and the acid phosphatase activity that is released is measured by: 1. adding phosphatase substrate (Sigma EC 224-246-5) at 2 mg/mL in 0.1 M Na citrate, pH 5.6, 0.1% triton X-100 for 1 hour at room temperature; 2. stopping the reaction by adding 50 μL of 2 M NaOH; and 3. analyzing the samples in a spectrophotometer at 405 nm. In each assay, 10 mM EDTA is used as a positive control and untreated cells are used as a negative control. The IC50 is the dose of test compound that reduces by 50% the adhesion of the HEK-293-αVβ3 cells, taking the results with untreated cells as 100% and the results in the presence of EDTA as 0%. In some instances more than one IC50 determination was made, in which case, results of separate determinations are reported. IC50's were not determined for all compounds in the table; for some of these test compounds the inhibition at specific doses are reported. In some instances, the test compound produced a greater reduction than 10 mM EDTA, and these are shown as negative numbers.
activation at 10 µM [2],EC50 [2],IC50 [3],Compound,AP5 expression [1]
4%,> 10000 nM,115 nM,"O=C(CCCCc1ccc2c(n1)NCCC2)NCCC(NC(=O)c1nc2ccccc2o1)C(=O)O (centres unmarked) [Example 74, 2-(1,3-benzoxazole-2-carbonylamino)-4-[5-(5,6,7,8-tetrahydro-1,8-naphthyridin-2-yl)pentanoylamino]butanoic acid]",
9%,> 10000 nM,< 100 nM and 54.6 nM and 65.1 nM,"O=C(CCCCc1ccc2c(n1)NCCC2)NCCC(NC(=O)c1nc2ccccc2s1)C(=O)O (centres unmarked) [Example 75, 2-(1,3-benzothiazole-2-carbonylamino)-4-[5-(5,6,7,8-tetrahydro-1,8-naphthyridin-2-yl)pentanoylamino]butanoic acid]",
9%,> 10000 nM,939 nM,"O=C(CCCCc1ccc2c(n1)NCCC2)NCCC(C(=O)O)n1cc(-c2ccccc2)nn1 (centres unmarked) [Example 76, 2-(4-phenyltriazol-1-yl)-4-[5-(5,6,7,8-tetrahydro-1,8-naphthyridin-2-yl)pentanoylamino]butanoic acid]",
8%,> 10000 nM,2020 nM,"CC(C)Cc1cn(C(CCNC(=O)CCCCc2ccc3c(n2)NCCC3)C(=O)O)nn1 (centres unmarked) [Example 77, 2-(4-isobutyltriazol-1-yl)-4-[5-(5,6,7,8-tetrahydro-1,8-naphthyridin-2-yl)pentanoylamino]butanoic acid]",
19%,> 10000 nM,532 nM,"COc1ccc(C(CCNC(=O)CCCCc2ccc3c(n2)NCCC3)C(=O)O)cn1 (centres unmarked) [Example 79, 2-(6-methoxy-3-pyridyl)-4-[5-(5,6,7,8-tetrahydro-1,8-naphthyridin-2-yl)pentanoylamino]butanoic acid]",
9%,> 10000 nM,< 100 nM and 101 nM and 143 nM,"O=C(CCCCc1ccc2c(n1)NCCC2)NCCC(Nc1ncc(-c2ccccc2)cn1)C(=O)O (centres unmarked) [Example 81, 2-[(5-phenylpyrimidin-2-yl)amino]-4-[5-(5,6,7,8-tetrahydro-1,8-naphthyridin-2-yl)pentanoylamino]butanoic acid]",
12%,> 10000 nM,206 nM,"O=C(CCCCc1nc2c(cc1C1CC1)CCCN2)NCCC(NC(=O)OCc1ccccc1)C(=O)O (centres unmarked) [Example 82, 2-(benzyloxycarbonyl-amino)-4-[5-(3-cyclopropyl-5,6,7,8-tetrahydro-1,8-naphthyridin-2-yl)pentanoyl-amino]butanoic acid]",
5%,> 10000 nM,128 nM,"O=C(CCCCc1nc2c(cc1C1CC1)CCCN2)NCCC(Nc1nc2ccccc2o1)C(=O)O (centres unmarked) [Example 83, 2-(1,3-benzoxazol-2-ylamino)-4-[5-(3-cyclopropyl-5,6,7,8-tetrahydro-1,8-naphthyridin-2-yl)pentanoylamino]butanoic acid]",
,> 10000 nM,534 nM,"O=C(CCCCc1ccc2c(n1)NCCC2)NCC[C@@H](Nc1ncc(-c2ccccc2)cn1)C(=O)O [Example 91, (R)-2-((5-phenylpyrimidin-2-yl)amino)-4-(5-(5,6,7,8-tetrahydro-1,8-naphthyridin-2-yl)pentanamido)butanoic acid]",

# Further lines, the molecule ahead of its results:
Compound,activation at 10 µM [2],EC50 [2],IC50 [3],AP5 expression [1]
"O=C(O)CN(CCN(CC(=O)O)CC(=O)O)CC(=O)O [EDTA, reference compound]",,,,21.8±5.9 arbitrary fluorescence units
"O=C(CCCCc1ccc2c(n1)NCCC2)NCCC(C(=O)O)n1cnc(-c2ccccc2)n1 (centres unmarked) [Example 78, 2-(3-phenyl-1,2,4-triazol-1-yl)-4-[5-(5,6,7,8-tetrahydro-1,8-naphthyridin-2-yl)pentanoylamino]butanoic acid]",10%,> 10000 nM,518 nM,
"O=C(CCCCc1ccc2c(n1)NCCC2)NCCC(C(=O)O)c1ccc(Oc2ccccc2)nc1 (centres unmarked) [Example 80, 2-(6-phenoxy-3-pyridyl)-4-[5-(5,6,7,8-tetrahydro-1,8-naphthyridin-2-yl)pentanoylamino]butanoic acid]",7.5%,> 10000 nM,1570 nM and 429 nM,
"O=C(CCCCc1ccc2c(n1)NCCC2)NCCC(C(=O)O)c1cnc2ccccc2c1 (centres unmarked) [Example 84, 2-(quinolin-3-yl)-4-(5-(5,6,7,8-tetrahydro-1,8-naphthyridin-2-yl)pentanamido)butanoic acid]",31%,> 10000 nM,121 nM,
"O=C(CCCCc1ccc2c(n1)NCCC2)NCC[C@@H](Nc1nc2ccccc2o1)C(=O)O [Example 85, (R)-2-(benzo[d]oxazol-2-ylamino)-4-(5-(5,6,7,8-tetrahydro-1,8-naphthyridin-2-yl)pentanamido)butanoic acid]",5%,> 10000 nM,151 nM,
"O=C(CCCCc1ccc2c(n1)NCCC2)NCC[C@@H](NC(=O)c1nc2ccccc2s1)C(=O)O [Example 86, (R)-2-(benzo[d]thiazole-2-carboxamido)-4-(5-(5,6,7,8-tetrahydro-1,8-naphthyridin-2-yl)pentanamido)butanoic acid]",7%,> 10000 nM,129 nM and 169 nM,
"O=C(CCCCc1ccc2c(n1)NCCC2)NCC[C@H](Nc1nc2ccccc2o1)C(=O)O [Example 87, (2S)-2-(1,3-benzoxazol-2-ylamino)-4-[5-(5,6,7,8-tetrahydro-1,8-naphthyridin-2-yl)pentanoylamino]butanoic acid]",14%,> 10000 nM,187 nM,
"O=C(CCCCc1ccc2c(n1)NCCC2)NCC[C@H](Nc1ncc(-c2ccccc2)cn1)C(=O)O [Example 92, (2S)-2-[(5-phenylpyrimidin-2-yl)amino]-4-[5-(5,6,7,8-tetrahydro-1,8-naphthyridin-2-yl)pentanoylamino]butanoic acid]",,> 10000 nM,201 nM,

# From patent US11192889B2, “Tetrahydronaphthyridinepentanamide integrin antagonists” (The Rockefeller University, priority 2016, dated 2021)
